Here are results for nine compounds from ChEMBL document CHEMBL2074008, “Structural determinants of P-glycoprotein-mediated transport of glucocorticoids” (Pharm Res, 2003).

The target in this data set is ATP-dependent translocase ABCB1 (Homo sapiens, UniProt P08183). The data set can be described thus: TP_TRANSPORTER: transepithelial transport in MDR1-expressing LLC-PK1 cells. It is filed as functional, cell-based. The note with it: pig.
Sequence of ATP-dependent translocase ABCB1 (P08183 whole entry): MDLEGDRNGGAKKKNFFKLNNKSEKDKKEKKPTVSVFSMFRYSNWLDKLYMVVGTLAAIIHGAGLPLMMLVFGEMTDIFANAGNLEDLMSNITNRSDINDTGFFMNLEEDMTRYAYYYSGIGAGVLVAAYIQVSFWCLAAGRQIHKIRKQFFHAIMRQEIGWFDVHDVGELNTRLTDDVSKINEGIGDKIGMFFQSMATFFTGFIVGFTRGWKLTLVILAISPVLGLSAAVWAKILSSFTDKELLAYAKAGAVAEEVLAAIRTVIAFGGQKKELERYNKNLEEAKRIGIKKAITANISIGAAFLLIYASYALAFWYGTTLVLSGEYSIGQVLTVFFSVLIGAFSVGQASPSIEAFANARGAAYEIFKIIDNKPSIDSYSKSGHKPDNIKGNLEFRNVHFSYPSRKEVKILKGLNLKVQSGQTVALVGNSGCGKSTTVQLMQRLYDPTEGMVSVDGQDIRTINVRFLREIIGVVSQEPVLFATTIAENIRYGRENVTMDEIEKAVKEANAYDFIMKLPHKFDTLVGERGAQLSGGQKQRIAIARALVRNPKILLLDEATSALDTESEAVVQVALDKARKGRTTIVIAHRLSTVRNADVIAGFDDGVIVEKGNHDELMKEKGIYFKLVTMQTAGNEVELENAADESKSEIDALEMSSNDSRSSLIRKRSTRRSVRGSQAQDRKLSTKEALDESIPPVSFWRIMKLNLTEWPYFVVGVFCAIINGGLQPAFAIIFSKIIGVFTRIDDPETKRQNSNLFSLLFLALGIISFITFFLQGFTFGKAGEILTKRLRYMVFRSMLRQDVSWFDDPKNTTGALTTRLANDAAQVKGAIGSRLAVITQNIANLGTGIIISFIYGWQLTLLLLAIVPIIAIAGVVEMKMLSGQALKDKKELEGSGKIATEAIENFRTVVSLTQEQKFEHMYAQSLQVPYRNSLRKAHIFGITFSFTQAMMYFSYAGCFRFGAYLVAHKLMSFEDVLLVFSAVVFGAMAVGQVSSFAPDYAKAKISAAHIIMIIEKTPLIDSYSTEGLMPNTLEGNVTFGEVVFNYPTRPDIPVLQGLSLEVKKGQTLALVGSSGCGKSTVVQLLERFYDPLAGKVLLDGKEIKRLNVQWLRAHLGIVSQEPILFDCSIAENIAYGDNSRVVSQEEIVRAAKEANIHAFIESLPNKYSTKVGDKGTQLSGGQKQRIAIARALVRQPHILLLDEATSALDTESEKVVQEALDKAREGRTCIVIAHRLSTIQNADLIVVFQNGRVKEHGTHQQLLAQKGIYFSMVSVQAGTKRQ
Regarding `C[C@]12C=CC(=O)C=C1CC[C@@H]1[C@@H]2C(=O)C[C@@]2(C)[C@H]1CC[C@]2(O)C(=O)CO` [PREDNISONE], the Activity entry is “substrate [+]”.
Turning to `C[C@H]1C[C@@H]2[C@H]([C@@H](O)C[C@@]3(C)[C@H]2CC[C@]3(O)C(=O)CO)[C@@]2(C)C=CC(=O)C=C12` [METHYLPREDNISOLONE], the Activity entry was “substrate [+]”.
Take `C[C@]12C=CC(=O)C=C1CC[C@@H]1[C@@H]2[C@@H](O)C[C@@]2(C)[C@H]1CC[C@]2(O)C(=O)CO` [PREDNISOLONE]: the Activity result was “substrate [+]”.
For the compound `C[C@@H]1C[C@H]2[C@@H]3CCC4=CC(=O)C=C[C@]4(C)[C@@]3(F)[C@@H](O)C[C@]2(C)[C@@]1(O)C(=O)CO` [DEXAMETHASONE], the Activity entry was “substrate [+]”.
As for `C[C@]12CCC(=O)C=C1CC[C@@H]1[C@@H]2[C@@H](O)C[C@@]2(C)[C@H]1CC[C@]2(O)C(=O)CO` [HYDROCORTISONE], the Activity result was “substrate [+]”.
`C[C@]12CCC(=O)C=C1[C@@H](O)C[C@@H]1[C@@H]2[C@@H](O)C[C@@]2(C)[C@H]1CC[C@]2(O)C(=O)CO`: the Activity entry was “substrate [+]”.
Turning to `C[C@H]1C[C@H]2[C@@H]3CCC4=CC(=O)C=C[C@]4(C)[C@@]3(F)[C@@H](O)C[C@]2(C)[C@@]1(O)C(=O)CO` [BETAMETHASONE], the Activity entry was “substrate [+]”.
With `C[C@]12CCC(=O)C=C1CC[C@@H]1[C@@H]2C(=O)C[C@@]2(C)[C@H]1CC[C@]2(O)C(=O)CO` [CORTISONE] the entry was “substrate [+]”; with `C[C@]12CCC(=O)C=C1[C@H](O)C[C@@H]1[C@@H]2[C@@H](O)C[C@@]2(C)[C@H]1CC[C@]2(O)C(=O)CO`, “substrate [+]”.
